This note sets out measurements from the OligoGym collection.

The data set concerns the target HSD17B13. Particulars: ASO, HepaRG.

“And” between values parts separate entries of the source, which are not always exact repeats. Identical values can stand only once. After the bases stand the sugars from the 5' end (letter, count) and the backbone: PS all phosphorothioate, else s phosphorothioate and o phosphodiester by linkage. Methylation of C is not given here. e = 2'-O-(2-methoxyethyl) (MOE); k = constrained ethyl (cEt); d = 2'-deoxy (DNA); m = 2'-O-methyl

GATTTAGTTGGTAGCT (sugars k3 d10 k3, PS) returned a target mRNA inhibition (1 µM) of 63%. The same measure, in the same setting: the value for AAGCATTGTTAGCTAA (sugars k3 d10 k3, PS) was 11%; that for CACATAGCTAACTCAG (sugars k3 d10 k3, PS) was 42%.

For the setting “1 µM”, AGTTGCACCGTTTTGG (sugars k3 d10 k3, PS) yielded a target mRNA inhibition of 55%.

With “ATAGTCCATGCAAAAG (sugars kkdddddddddkekek, PS)”, the target mRNA inhibition (1 µM) stood at 31%. For GAGAAGATCGGCTGGA (sugars k3 d10 k3, PS), the target mRNA inhibition (1 µM) was 6%.

As for GAATAGCAAGCCAACA (sugars k3 d10 k3, PS), the target mRNA inhibition runs as follows: (0.02 µM) 0%; (0.078 µM) 4%; (0.313 µM) 12%; (1 µM) 64%; (1.25 µM) 20%; (5 µM) 40% and 50%. The sequence CAAAAGTGTCCTCGAT (sugars k3 d10 k3, PS) had a target mRNA inhibition (1 µM) of 5%. Still for that read-out and setting: the value for TTTAGTATTTGGGTGT (sugars k3 d10 k3, PS) was 21%. On the same count and under the same terms, the value for “GCATCTTAAGATACCC (sugars kkdddddddddkekek, PS)” was 41%. The same measure, in the same setting: for TATAGAGGGTCCACTT (sugars k3 d10 k3, PS) the value was 17%; for TGTGGCATGGCTACAG (sugars k3 d10 k3, PS), 24%. On to CGCTACTGTAGGCTAA (sugars k3 d10 k3, PS), for which the target mRNA inhibition (1 µM) was 68%. The same measure, in the same setting: for “ACTGCTGCTAGTGCCA (sugars k3 d9 k3 e1, PS)” the value was 57%; for AGCTAAGTATACTTTC (sugars k3 d10 k3, PS), 18%. Same read-out and setting: for GCAAAGATCTGGCCAG (sugars k3 d10 k3, PS) the value was 22%; for CAATCCCAACCAAACT (sugars k3 d10 k3, PS), 49%; for AACTTGATCTCTTAGC (sugars k3 d10 k3, PS), 64%.

Where the note is “1 µM”, GATCTAGAACACTTGC (sugars k3 d10 k3, PS) displayed a target mRNA inhibition of 27%. “AATAGAGTCGGTCACC (sugars k3 d1 m1 d8 k3, PS)” showed a target mRNA inhibition (1 µM) of 57%. Same read-out and setting: the value for CTGTAATTGGCTCTTG (sugars k3 d10 k3, PS) was 28%; that for CTATCTCCCTATTTGT (sugars k3 d10 k3, PS) was 15%. For the sequence CTCAAATGTCTTGGTA (sugars k3 d10 k3, PS), the target mRNA inhibition (1 µM) was 29%. Same read-out and setting: the value for CATAACTACTTCAGTT (sugars k3 d10 k3, PS) was 3%; that for GGGTCCATTGTTTCTT (sugars k3 d10 k3, PS) was 21%. On the same count and under the same terms, the value for TTTCGCTACTGTAGGC (sugars k3 d10 k3, PS) was 62%.

The sequence TTGATATACGATGGAA (sugars k3 d10 k3, PS) registered a target mRNA inhibition (1 µM) of 38%. Under “1 µM”, AATGTCCTAGGATGTT (sugars k3 d10 k3, PS) had a target mRNA inhibition of 70%.

For AAACCTTCCCTGTGTA (sugars k3 d10 k3, PS), the target mRNA inhibition (1 µM) came to 34%. On the same count and under the same terms, the value for ACCTTACCTTGTGCTT (sugars k3 d10 k3, PS) was 0%; that for CACACTAATGAATCAT (sugars k3 d10 k3, PS) was 30%; that for “TGTGATTGAGTTCTCC (sugars kkdddddddddkekek, PS)” was 11%. AGACCTCTGTGAAAGC (sugars k3 d10 k3, PS) came in with a target mRNA inhibition (1 µM) of 50%. Still for that read-out and setting: for GTGACATAACTACTTC (sugars k3 d10 k3, PS) the value was 68%; for GTACATGCCAAGCTTT (sugars k3 d10 k3, PS), 61%. As for CTATGTAATAGGCAGT (sugars k3 d10 k3, PS), the target mRNA inhibition (0.02 µM) came out at 18%; the target mRNA inhibition (0.078 µM) came out at 20%; the target mRNA inhibition (0.313 µM) stood at 63%; the target mRNA inhibition (1 µM) stood at 73%; the target mRNA inhibition (1.25 µM) turned out to be 75%; the target mRNA inhibition (5 µM) was determined as 86%. The sequence “GTCTAAACATCTCTGG (sugars kkdddddddddkekek, PS)” returned a target mRNA inhibition (1 µM) of 50%. Same read-out and setting: the value for TACAACCTGGTTTCAT (sugars k3 d10 k3, PS) was 25%; that for AACCAATCCTCAGCTT (sugars k3 d10 k3, PS) was 0%. The same measure, in the same setting: the value for “GGTTGAGATAAAGCTG (sugars k3 d9 k3 e1, PS)” was 67%; that for ATAAGTAGATGGTAAG (sugars k3 d10 k3, PS) was 58%. The same measure, in the same setting: for GTAAGTATTCCATCTA (sugars k3 d10 k3, PS) the value was 45%. With TTGGTGAACCCAGTAT (sugars k3 d10 k3, PS), where the note is “1 µM”, the target mRNA inhibition came to 31%.

Where the note is “1 µM”, “TCTAAACATCTCTGGG (sugars k3 d1 m1 d8 k3, PS)” yielded a target mRNA inhibition of 36%. Still for that read-out and setting: the value for “TTGAGTTCTCCACTGC (sugars k3 d1 m1 d8 k3, PS)” was 18%. On the same count and under the same terms, for GTCCAGGTTGAGATAA (sugars k3 d10 k3, PS) the value was 60%. As for GTATTTCGCTACTGTA (sugars k3 d10 k3, PS), the target mRNA inhibition (0.02 µM) turned out to be 0%; the target mRNA inhibition (0.078 µM) amounted to 0%; the target mRNA inhibition (0.313 µM) was 24%; the target mRNA inhibition (1 µM) turned out to be 76%; the target mRNA inhibition (1.25 µM) is 64%; the target mRNA inhibition (5 µM) was 86%.

GATCTAAAACTGAAGG (sugars k3 d10 k3, PS) came in with a target mRNA inhibition (1 µM) of 44%. Still for that read-out and setting: for GCAGCTAAAATCCAAT (sugars k3 d10 k3, PS) the value was 70%; for CTGAGTAAACGACTCT (sugars k3 d10 k3, PS), 33%; for AAAAATTGGTTTCGAA (sugars k3 d10 k3, PS), 13%. The same measure, in the same setting: for CTGTAGGTTTTGCTTC (sugars k3 d10 k3, PS) the value was 27%.

GCACTAAAGGTTTCTG (sugars k3 d10 k3, PS) yielded a target mRNA inhibition (0.02 µM) of 24%; a target mRNA inhibition (0.078 µM) of 39%; a target mRNA inhibition (0.313 µM) of 58%; a target mRNA inhibition (1 µM) of 75%; a target mRNA inhibition (1.25 µM) of 79%; a target mRNA inhibition (5 µM) of 90%. Turning to “AGAATAGAGTTGCACC (sugars k3 d9 k3 e1, PS)”, under “1 µM”, the target mRNA inhibition stood at 58%. Still for that read-out and setting: the value for “CATCTCTGGGACCAAG (sugars kkdddddddddkekek, PS)” was 44%.

For ACATTCTTCAGGTGTT (sugars k3 d10 k3, PS), the target mRNA inhibition reads like this: (0.02 µM) 0%; (0.078 µM) 20%; (0.313 µM) 48%; (1 µM) 88%; (1.25 µM) 80%; (5 µM) 90%. As for CCTACCAAGAGGGTTT (sugars k3 d10 k3, PS), the target mRNA inhibition (1 µM) turned out to be 34%. Under “1 µM”, GCTTATCGAGTTTAGC (sugars k3 d10 k3, PS) registered a target mRNA inhibition of 17%.

In turn, ACCAGAATCCATTCTA (sugars k3 d10 k3, PS) came in with a target mRNA inhibition (1 µM) of 60%.

On to TTTTTAATACGACTTC (sugars k3 d10 k3, PS), for which, under “1 µM”, the target mRNA inhibition worked out at 52%. With TGATGTAGTGGGAGTC (sugars k3 d10 k3, PS), under “1 µM”, the target mRNA inhibition is 65%. Still for that read-out and setting: the value for ACGGTGATCAAATGTA (sugars k3 d10 k3, PS) was 53%; that for AGAGCCAAACTGCTAC (sugars k3 d10 k3, PS) was 55%; that for TGTTAACCTGCAGCAG (sugars k3 d10 k3, PS) was 39%. TTTAGTTAGAATAGTC (sugars k3 d10 k3, PS) came in with a target mRNA inhibition (1 µM) of 15%. ATCTAACTAACCTGAC (sugars k3 d10 k3, PS) had a target mRNA inhibition (1 µM) of 0%. The same measure, in the same setting: the value for ACAAGATTAGTCTTGA (sugars k3 d10 k3, PS) was 45%; that for “GGGAGGTAGCTTTTGT (sugars k3 d9 k3 e1, PS)” was 40%. Still for that read-out and setting: the value for CCCAAGCTACCTCCAA (sugars k3 d10 k3, PS) was 15%; that for “GCATGGCTACAGATTG (sugars k3 d9 k3 e1, PS)” was 67%; that for GTAAGGAGTAGTGGAG (sugars k3 d10 k3, PS) was 37%. Still for that read-out and setting: for AGAACCAGGACTCTCC (sugars k3 d10 k3, PS) the value was 67%; for TTTCATAGCTCACTTA (sugars k3 d10 k3, PS), 16%.

TCTATTGATTGGCTTA (sugars k3 d10 k3, PS) registered a target mRNA inhibition (1 µM) of 39%. Still for that read-out and setting: the value for “TATAGTTATCTTCTCA (sugars kkdddddddddkekek, PS)” was 45%; that for AAAATGGTGGCGAGGC (sugars k3 d10 k3, PS) was 0%. Still for that read-out and setting: the value for ATCTATCATGCCTTCC (sugars k3 d10 k3, PS) was 6%; that for ACCAATATGGGATGAG (sugars k3 d10 k3, PS) was 24%; that for “AGTTGCACCGTTTTGG (sugars k3 d9 k3 e1, PS)” was 43%. Regarding TGGTAACGGTGATCAA (sugars k3 d10 k3, PS), the target mRNA inhibition runs as follows: (0.02 µM) 14%; (0.078 µM) 28%; (0.313 µM) 58%; (1 µM) 74%; (1.25 µM) 76%; (5 µM) 88%.

As to “TAGCUTTTGTCCACCT (sugars k3 d1 m1 d8 k3, PS)”, the target mRNA inhibition by setting is: (0.02 µM) 8%; (0.078 µM) 9%; (0.313 µM) 26%; (1 µM) 67% and 50%; (1.25 µM) 54%; (5 µM) 78%.
